{"source": "patent US8927732B2", "about": "“Biotin stannane for HPLC-free radioiodination” (General Electric Company, priority 2012, dated 2015)", "biological_target": "streptavidin resin column (Streptomyces avidinii, UniProt P22629)", "sequence (P22629 25-183)": "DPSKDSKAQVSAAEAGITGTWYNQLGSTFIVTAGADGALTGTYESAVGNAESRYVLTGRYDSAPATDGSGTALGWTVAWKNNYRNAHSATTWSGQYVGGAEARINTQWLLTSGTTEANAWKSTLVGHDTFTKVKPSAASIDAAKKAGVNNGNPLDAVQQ", "test": "Purification with streptavidin resin column in the presence of additives (solubility enhancing agent study)", "conditions": "eluent PBS", "method": "To an Eppendorf vial were added 56.6 μg precursor 4 (56.6 μL, 1.0 mg/mL, EtOH), 5 μL AcOH, Na^125I (18.5 MBq or 500 μCi, pH 8˜11 in aqueous NaOH) and iodogen (50 μL, 0.2 mg/mL in EtOH), subsequently. The reaction mixture was allowed to sit at room temperature for 20 minutes, with occasional swirling. After quenching with 100 μL of Na2S2O3 (0.1 M aq.), the mixture was diluted with 100 μL of EtOH then added to the binding buffer tested as described below.\nA streptavidin resin column was packed using 1.6 mL of resin slurry (0.8 mL of actual resin) as described previously and washed with the appropriate binding buffer (4.0 mL, 5 cv). An 80 μL aliquot of the above radiolabeling mixture was diluted with the appropriate binding buffer (920 μL) and mixed for 10 minutes before loading onto streptavidin column. After incubation for 20 minutes, radiolabeled product was eluted off the column with binding buffer (three 0.5 mL fractions collected). All fractions (including a forerun fraction collected while loading the reaction mixture onto column) were subjected to HPLC analysis before being combined."}
{"compound": "O=C(OCc1ccccc1)c1cccc([125I])c1", "note": "[Compound 125I-3IBABn]", "values": [{"measurement": "Activity left on column", "setting": "10% HP-β-CD w/v", "value": 16, "unit": "%"}, {"measurement": "Activity left on column", "setting": "20% HP-β-CD w/v", "value": 13, "unit": "%"}, {"measurement": "Activity left on column", "setting": "40% HP-β-CD w/v", "value": 7, "unit": "%"}]}
